According to publication PMC10817170, “Effect of an NHE3 inhibitor in combination with an NPT2b inhibitor on gastrointestinal phosphate absorption in Rodent models” (PLOS ONE, 2024):
pIC50: −log10 of the molar value.

Biological target: T1, Human NPT2b (Homo sapiens, UniProt O95436)
T1 construct: expressed in transfected cells; host or cells: T-Rex CHO (Thermo Fisher Scientific), tetracycline-inducible
T1 sequence (O95436 1-690): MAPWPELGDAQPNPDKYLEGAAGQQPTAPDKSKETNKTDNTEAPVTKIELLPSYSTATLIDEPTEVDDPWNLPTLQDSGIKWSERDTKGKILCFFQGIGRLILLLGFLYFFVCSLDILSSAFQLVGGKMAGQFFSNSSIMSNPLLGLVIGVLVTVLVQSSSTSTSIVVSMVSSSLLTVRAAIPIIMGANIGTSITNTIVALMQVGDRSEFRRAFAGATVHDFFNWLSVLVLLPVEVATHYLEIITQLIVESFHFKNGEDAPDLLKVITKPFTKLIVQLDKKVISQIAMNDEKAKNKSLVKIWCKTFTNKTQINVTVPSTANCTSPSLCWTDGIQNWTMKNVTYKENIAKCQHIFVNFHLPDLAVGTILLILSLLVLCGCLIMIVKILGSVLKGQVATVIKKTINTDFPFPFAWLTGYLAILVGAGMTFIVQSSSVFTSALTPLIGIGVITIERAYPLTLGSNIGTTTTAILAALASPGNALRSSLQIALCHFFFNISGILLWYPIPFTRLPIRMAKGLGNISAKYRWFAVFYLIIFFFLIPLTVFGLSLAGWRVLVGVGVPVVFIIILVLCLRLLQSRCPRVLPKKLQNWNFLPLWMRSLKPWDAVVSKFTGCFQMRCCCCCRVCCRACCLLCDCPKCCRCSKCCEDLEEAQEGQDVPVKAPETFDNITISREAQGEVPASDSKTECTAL
Experiment: NPT2b activity assay (33P-phosphate uptake in T-Rex CHO cells)
Format: cell-based
Conditions: geometric mean, n=3
Experimental: Generation of inducible human, mouse, and rat NPT2b overexpressing T-Rex™ Chinese Hamster Ovary (CHO, Thermo Fisher Scientific) cells and the NPT2b activity assay were described previously. Briefly, cells were plated in 96-well CytoStar-T® scintillating microplates and were incubated overnight in medium plus 100 ng/mL of tetracycline to induce the expression of human NPT2b. The cells were then washed 3 times with 200 μL Assay Buffer (137 mM NaCl, 5.4 mM KCl, 2.8 mM CaCl2, 1.2 mM MgSO4, and 14 mM Tris-HCl buffer, pH 7.5). LY3304000 serially diluted 1-to-3 in DMSO was added to cells with Assay Buffer. An equal volume of H3^33PO4 (PerkinElmer) in Assay Buffer supplemented with 5 μM potassium phosphate was then added to initiate radiolabeled phosphate (^33P-phosphate) uptake. The final phosphate concentration was 2.5 μM. Following a 60-minute incubation at room temperature, an equal volume of Assay Buffer containing 400 μM phloretin was added to stop ^33P-phosphate uptake. The plate was immediately read on a Wallac MicroBeta Trilux liquid scintillation counter. Percent inhibition at all concentrations tested was calculated, and IC50 values were then determined using a 4-parameter logistic curve fitting equation.

pIC50: 4.23
Structure (SMILES): CN1Cc2c(Cl)cc(Cl)cc2[C@H](c2cccc(S(=O)(=O)NCCOCCOCCN/C(=N\C(N)=O)NCCCCN/C(=N/C(N)=O)NCCOCCOCCNS(=O)(=O)c3cccc([C@@H]4CN(C)Cc5c(Cl)cc(Cl)cc54)c3)c2)C1.Cl.Cl [LY3304000, (Z)-[[4-[[(Z)-N’-carbamoyl-N-[2-[2-[2-[[3-[(4S)-6,8-dichloro-2-methyl-3,4-dihydro-1H-isoquinolin-4-yl]phenyl]sulfonylamino]ethoxy]ethoxy]ethyl]carbamimidoyl]amino]butylamino]-[2-[2-[2-[[3-[(4S)-6,8-dichloro-2-methyl-3,4-dihydro-1H-isoquinolin-4-yl]phenyl]sulfonylamino]ethoxy]ethoxy]ethylamino]methylene]urea dihydrochloride]
